Measurements reported in publication PMC7617459, “Comparative Evaluation and Profiling of Chemical Tools for the Nuclear Hormone Receptor Family 2” (ACS pharmacology & translational science, 2025).

Key:
PNR = system: PNR; parameters: method as in PMID 35508617; conditions: cited from earlier work
PNR protein levels = system: PNR protein levels; parameters: method as in PMID 35508617, PMID 19379737; conditions: retinoblastoma cells, 1 µM, Western blot; cited from earlier work
[1] = biological target: PNR mutations associated with Enhanced S-Cone Syndrome (ESCS); parameters: method as in PMID 35508617; conditions: cited from earlier work
ATF6 = ATF6 activity assay; format: cell-based; conditions: tunicamycin treated Hela ATF6 reporter cells
Description: Next, we evaluated the potential impact of the NR2 modulator set on endoplasmic reticulum (ER) stress in an ATF6 activity assay (Fig. 4b). The activating transcription factor 6 (ATF6) participates in the unfolded protein response and is activated under ER stress.[164] Tunicamycin-induced ATF6 activity was not affected by RXR and TLX modulators but was reduced by the inverse PNR agonists 22 and 23.
Hela cells containing a Renilla luciferase reporter gene for ATF6 activity (ATF6 Leeporter™ Luciferase Reporter-HeLa Cell Line, Abeomics Inc.; #14-138ACL) were cultured in DMEM supplemented with 10% heat-inactivated FCS, penicillin (100 U/mL), streptomycin (100 μg/mL) and puromycin (3 µg/mL) at 37°C and 5% (v/v) CO2 and seeded in 96-well plates (1 × 10^5 per well). After 24 h, the cells were incubated with the test compounds solubilized with 0.1% DMSO in the same medium without puromycin. After 4 h of incubation, tunicamycin (100 ng/mL) was added. After another 18 h of incubation, cells were assayed for renilla luminescence using DualGlo reagent (Promega) on a Tecan SPARK Cyto (Tecan). Test samples were normalized to the 0.1% DMSO control.

MBP-NR2E1-LBD = system: MBP-NR2E1-LBD; parameters: method as in PMID 35508617; conditions: MS-based binding experiment; cited from earlier work
MBP-PNR-LBD = biological target: MBP-PNR-LBD; parameters: method as in PMID 35508617; conditions: determined by UV absorption; cited from earlier work
nuclear receptors = experiment: Selectivity profiling in Gal4-hybrid reporter gene assay panel; format: cell-based, human; conditions: at active concentration
Protocol: Compounds were tested at concentrations around EC90 according to the literature or at the highest nontoxic concentration (from the multiplex toxicity assay). […] (b) Selectivity profiling of NR2 modulators in a representative panel of nuclear receptors outside the NR2 family. […] Effects <5% of the respective reference ligands were considered as not relevant and omitted. Only effects are shown that are statistically significant against VP16 ctrl (Figure S3); n = 3.

COS-7 cells = experiment: Multiplex toxicity assay; format: cell-based; conditions: 24 h, at active concentration
Protocol: COS-7 cells (DSMZ #ACC 60) were cultured at 37°C and 5% CO2 in DMEM high glucose medium supplemented with sodium pyruvate (1 mM), penicillin (100 U/mL), streptomycin (100 µg/mL), and 10% fetal calf serum (FCS). After aspirating the wells, the cells were seeded at 1x10^5 cells per well in complete culture medium. […] Each sample was prepared in at least 4 biologically independent replicates. After incubation for 24 h, the wells were aspirated and incubated for 30 min with stimulation medium containing 1 µM NucView® 405 fluorogenic caspase-3 substrate (#10405, Biotium, Fremont, USA) and Live-or-Dye Nuc-Fix Red (0.05x, Biotium, Inc., Fremont, CA, 1691 USA) to detect apoptosis and necrosis, respectively. After incubation, a total of 6 fluorescence images per well at 10x magnification were taken to detect NucView®-positive (Ex: 381–400 nm, Em: 414–450 nm) and Live-or-Dye-positive cells (Ex: 543−566 nm, Em: 580−611 nm) using on a Tecan Spark Cyto (Tecan Group AG). Reference readings for background correction and detection of auto-fluorescence were taken at 414–450 nm prior to staining. Thereafter, wells were aspirated, the cells were incubated for 3 h with 90 µL culture medium (0.2% FCS) and 10 µL Cell Counting Kit-8 solution (CCK-8, MedChem Express #HY-K0301), and absorbance was measured at 1, 2, and 3h of incubation at 450 nm on a Tecan Spark Cyto to assess metabolic activity of the cells. Before drug administration, after the first medium exchange, 24 h after drug administration, and after fluorescence imaging cell confluence was assessed using the Tecan Spark Cyto, to account for changes in cell confluence due to drug administration and cell handling. The number of apoptotic cells, metabolic activity, and changes in cell confluence in response to drug treatment were all normalized to the vehicle control of each biological replicate individually.

NR2F1 [2] = system: NR2F1; parameters: method as in PMID 34812843; conditions: cited from earlier work
PNR (NR2E3) = biological target: T1, PNR (NR2E3) (Homo sapiens, UniProt Q9Y5X4); experiment: Gal4-hybrid reporter gene assay PNR; format: cell-based; conditions: selected test concentration (Figure 3)
T1 construct: encoding the hinge region and the LBD of the canonical isoform of the respective human nuclear receptors; expressed in transfected cells; host or cells: HEK293T
T1 sequence (Q9Y5X4 169-410 limits assumed): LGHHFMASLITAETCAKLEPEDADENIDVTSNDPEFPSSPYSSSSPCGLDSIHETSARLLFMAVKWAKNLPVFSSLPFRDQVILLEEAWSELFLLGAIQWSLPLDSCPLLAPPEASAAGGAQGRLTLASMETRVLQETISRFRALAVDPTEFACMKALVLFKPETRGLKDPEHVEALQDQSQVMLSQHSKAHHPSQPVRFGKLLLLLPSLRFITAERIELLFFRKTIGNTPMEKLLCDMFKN
Protocol: Gal4-hybrid reporter gene assays were performed as described previously using the plasmids pFA-CMV-hTHRα-LBD,[170] pFA-CMV-hRARα-LBD,[171] pFA-CMV-hPPARα-LBD,[172] pFA-CMV-hPPARγ-LBD,[172] pFA-CMV-hPPARδ-LBD,[172] pFA-CMV-revERBα-LBD,[158] pFA-CMV-hRORα-LBD,[173] pFA-CMV-hLXRα-LBD,[118] pFA-CMV-hFXR-LBD,[174] pFA-CMV-hVDR-LBD,[171] pFA-CMV-hCAR-LBD,[171] pFA-CMV-hHNF4α-LBD,[110] pFA-CMV-hRXRα-LBD,[175] pFA-CMV-hTR2-LBD,[102] pFA-CMV-hTR4-LBD,[102] pFA-CMV-hTLX-LBD,[102] pFA-CMV-hNR2E3-LBD,[102] pFA-CMV-hNur77-LBD,[176] pFA-CMV-hSF1-LBD[158] encoding the hinge region and the LBD of the canonical isoform of the respective human nuclear receptors. pFR-Luc (Stratagene, La Jolla, CA, USA) was used as a reporter plasmid, and pRL-SV40 (Promega, Madison, WI, USA) was used for normalization of transfection efficiency and cell growth. HEK293T cells (German Collection of Microorganisms and Cell Culture GmbH, DSMZ) were cultured in Dulbecco’s modified Eagle’s medium (DMEM), high glucose supplemented with 10% fetal calf serum (FCS), sodium pyruvate (1 mM), penicillin (100 U/mL), and streptomycin (100 μg/mL) at 37 °C and 5% CO2 and seeded in 96-well plates (3 × 10^4 cells/well). The medium was changed to Opti-MEM without supplements, and the cells were transiently transfected with one pFA-CMV-hNR-LBD clone, pFR-Luc, and pRL-SV40 using Lipofectamine LTX reagent (Invitrogen, Thermo Fisher Scientific) according to the manufacturer’s instructions. Five hours after transfection, cells were incubated with the test compounds in Opti-MEM supplemented with penicillin (100 U/mL), streptomycin (100 μg/mL), and 0.1% DMSO. Each sample was set up in duplicates and tested in at least three independent experiments. After 16 h incubation, luciferase activity was measured using the Dual-Glo Luciferase Assay System (Promega) according to the manufacturer’s protocol on a Tecan Spark luminometer (Tecan Deutschland GmbH, Crailsheim, Germany). Firefly luminescence was divided by Renilla luminescence and multiplied by 1000 resulting in relative light units (RLUs) to normalize for transfection efficiency and cell growth. Fold activation was obtained by dividing the mean RLU of the test compound by the mean^a RLU of the untreated control, and relative activation was calculated by dividing the fold activation of a test sample by the fold activation of the respective reference agonist. Antagonistic effects were evaluated by coincubation of the test compound with the respective reference ligand.

NR2F1 [3] = system: NR2F1; parameters: method as in PMID 34812843; conditions: T-Hep3 cells on chicken embryo chorioallantoic membrane; cited from earlier work
[4] = system: NR2F1-regulated genes SOX9, RARβ, and p27; parameters: method as in PMID 34812843; conditions: chicken embryo chorioallantoic membrane tumors; cited from earlier work
[5] = system: head and neck squamous-cell carcinoma (HNSCC); parameters: method as in PMID 34812843; conditions: mice; cited from earlier work
[6] = system: COUP-TF2 target genes FOXM1 and CDK1; parameters: method as in PMID 32494682; conditions: prostate cancer cells; cited from earlier work
prostate cancer tumor = system: prostate cancer tumor; parameters: method as in PMID 32494682; conditions: xenograft mouse model, 2.6 mg/kg; cited from earlier work
COUP-TF2 = system: COUP-TF2; parameters: method as in PMID 32494682; conditions: reporter gene assay; cited from earlier work
[7] = system: HNF4α, RXRα, PPARα, LXRα, GR, PR, ER, RAR, RORγ, AR, and COUP-TF1; parameters: method as in PMID 32494682; conditions: cited from earlier work

C=CC1=C(C)/C(=C/C2=NC(=C\c3[nH]c(/C=C4\NC(=O)C(C)=C4C=C)c(C)c3CCC(=O)O)/C(CCC(=O)O)=C2C)NC1=O [compound 25, biliverdin]
PNR activation (PNR; reporter gene assay in 293F cells): approximately 3 fold | EC50 (PNR; reporter gene assay): 5 nM | PNR protein levels (PNR protein levels): two-fold increase | Kd [1]: 9000 nM | tunicamycin-induced ATF6 activity (ATF6): slightly diminished | interaction with MBP-NR2E1-LBD (TLX) (MBP-NR2E1-LBD): no interaction | Kd (MBP-PNR-LBD): 200 nM | selectivity over other nuclear receptors (nuclear receptors): Favorable selectivity profiles | cytotoxicity (COS-7 cells): lack of cytotoxicity

CCSc1nnc2n(CCc3ccccc3)c(=O)c3c(n12)-c1ccccc1CC31CCCCC1 [compound 26]
fold activation @ 0.1 μM (NR2F1 [2]; reporter gene assay, 0.1 μM): 2.4 f.A. | fold activation @ 1 μM (NR2F1 [2]; reporter gene assay, 1 μM): 1.9 f.A. | EC50 (NR2F1 [2]; reporter gene assay, two cell lines): 500 to 1000 nM | enhancement of reporter activity (NR2F1 [2]; two cell lines): approximately two-fold | PNR modulation (PNR (NR2E3)): confirmed albeit with rather low efficacy | increase in NR2F1 mRNA (NR2F1 [3]): 2.3 fold | increase in NR2F1 protein levels (NR2F1 [3]): 10 fold | expression of NR2F1-regulated genes SOX9, RARβ, and p27 [4]: induced expression | tumor growth and metastasis of HNSCC [5]: inhibited tumor growth and metastasis

COc1ccc(CCNc2ncnc3sc(C)cc23)cc1OC [compound 27]
expression of COUP-TF2 target genes FOXM1 and CDK1 [6]: altered expression | prostate cancer tumor growth and angiogenesis (prostate cancer tumor): inhibited prostate cancer tumor growth and angiogenesis | IC50 (COUP-TF2): 3200 nM | interaction with related NRs in pulldown assay [7]: no relevant interaction
